Experimental data from PubChem BioAssay (NCI).
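48-hour exposure; five concentrations; linearly interpolated endpoints. TGI is the concentration that stops growth completely.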 Where a SMILES comes first, the peptide text is derived from it. The star is where a group is joined. Cbz = O=C(OCc1ccccc1)*; Boc = CC(C)(C)OC(=O)*; OSu = O=C1CCC(=O)N1O*; Bn = c1ccc(C*)cc1

Assays:
Assay in all cases: inhibition of tumour cell growth, NCI panel, 48 h
RPMI-8226 leukemia = test system: RPMI-8226 leukemia
SN12C renal = test system: SN12C renal
EKVX NSCLC = test system: EKVX NSCLC
NCI/ADR-RES ovarian = test system: NCI/ADR-RES ovarian
MDA-MB-435 = test system: MDA-MB-435
SK-MEL-2 melanoma = test system: SK-MEL-2 melanoma
NCI-H23 lung = test system: NCI-H23 lung
UACC-62 melanoma = test system: UACC-62 melanoma
SW-620 colon = test system: SW-620 colon
DU-145 prostate = test system: DU-145 prostate
A498 renal = test system: A498 renal
SK-MEL-5 melanoma = test system: SK-MEL-5 melanoma
MALME-3M melanoma = test system: MALME-3M melanoma
ACHN renal = test system: ACHN renal
SNB-75 CNS = test system: SNB-75 CNS

Row | Compound | TGI (RPMI-8226 leukemia) | TGI (SN12C renal) | TGI (EKVX NSCLC) | TGI (NCI/ADR-RES ovarian) | TGI (MDA-MB-435) | TGI (SK-MEL-2 melanoma) | TGI (NCI-H23 lung) | TGI (UACC-62 melanoma) | TGI (SW-620 colon) | TGI (DU-145 prostate) | TGI (A498 renal) | TGI (SK-MEL-5 melanoma) | TGI (MALME-3M melanoma) | TGI (ACHN renal) | TGI (SNB-75 CNS)
1 | Cc1ccc(S(=O)(=O)N2CCSCCN(S(=O)(=O)c3ccc(C)cc3)CCN(S(=O)(=O)c3ccc(C)cc3)CC2)cc1 | > 100 µM | > 100 µM | > 100 µM | > 100 µM | > 100 µM | 79.9 µM | > 100 µM | > 100 µM | > 100 µM | > 100 µM | > 100 µM | > 100 µM |  |  | 
2 | N/N=C(\C(=O)Nc1ccc(Cl)cc1Cl)C(c1cnc2ccccc2n1)[N+](=O)[O-] (centres undefined) | > 100 µM | > 100 µM | > 100 µM | > 100 µM | > 100 µM | > 100 µM | > 100 µM | > 100 µM | > 100 µM |  | > 100 µM | > 100 µM | > 100 µM | > 100 µM | > 100 µM
3 | CC(C)=NNC=N/C(C#N)=C(\N)C#N | > 100 µM |  | > 100 µM | > 100 µM |  | > 100 µM | > 100 µM | > 100 µM | > 100 µM | > 100 µM |  | > 100 µM | > 100 µM | > 100 µM | > 100 µM
4 | C=C(C)[C@@]1(OC(=O)c2cc([N+](=O)[O-])cc([N+](=O)[O-])c2)C[C@@H]2CCCC[C@@H]21 | > 100 µM | > 100 µM | > 100 µM | > 100 µM |  | > 100 µM | > 100 µM | > 100 µM | > 100 µM | > 100 µM |  |  | > 100 µM | > 100 µM | > 100 µM
5 | Nc1cc(N2CCCC2)nc(=O)n1-c1ccccc1 | > 100 µM | > 100 µM | > 100 µM | > 100 µM | > 100 µM | > 100 µM | > 100 µM |  | > 100 µM | > 100 µM |  | > 100 µM | > 100 µM | > 100 µM | > 100 µM
6 | C[n+]1c(-c2ccc(/C=N/NC(=O)C(=O)N/N=C/c3ccc(-c4cn5ccsc5[n+]4C)cc3)cc2)cn2ccsc21 | > 100 µM | > 100 µM | > 100 µM | > 100 µM | > 100 µM |  |  |  | > 100 µM |  |  | > 100 µM |  | > 100 µM | > 100 µM
7 | COC1=CCC=C(C[C@@H]2NCCc3cc(OC)c(OC)cc32)C1 | > 100 µM | > 100 µM | > 100 µM |  |  | > 100 µM | > 100 µM | > 100 µM | > 100 µM |  | > 100 µM | > 100 µM | > 100 µM | > 100 µM | > 100 µM
8 | CC(C)(C)OC(=O)NC(Cc1ccc(OCc2ccccc2)cc1)C(=O)NC(CCCCNC(=O)OCc1ccccc1)C(=O)ON1C(=O)CCC1=O (centres undefined) (Boc-Tyr(Bn)-Lys(Cbz)-OSu; configuration not given here) | 45.3 µM | 32.9 µM | > 100 µM |  |  | 33.8 µM | 34.4 µM | 33.2 µM | 41.1 µM |  | > 100 µM | 48 µM | 46.9 µM | 42.6 µM | 54.9 µM
9 | NC(=S)N/N=C1\NC(=O)/C(=C/c2ccc3c(c2)OCO3)S1 |  | > 100 µM | 56 µM | 78.7 µM | 78.1 µM | 90.1 µM | 54.4 µM |  | 88.8 µM | 88 µM | 30.3 µM | 37.7 µM |  | > 100 µM | 52.6 µM
10 | O=C(O)c1cc(/C=C/c2cc(O)ccc2O)ccc1O |  | > 10 µM | > 10 µM | > 10 µM | > 10 µM | > 10 µM | > 10 µM | > 10 µM | > 10 µM | > 10 µM |  |  | > 10 µM | > 10 µM | 
11 | CN(NC(=O)c1cccs1)C1=NCCCCN1 | > 100 µM |  | > 100 µM | > 100 µM | > 100 µM | > 100 µM | > 100 µM | > 100 µM | > 100 µM |  | > 100 µM | > 100 µM | > 100 µM | > 100 µM | > 100 µM
12 | CC(=O)Nc1ccc2[nH]c(-c3cccc(Cl)c3)cc(=O)c2c1 | > 100 µM | > 100 µM | > 100 µM | > 100 µM | 6.93 µM |  | > 100 µM | 84.4 µM | > 100 µM |  |  | > 100 µM | > 100 µM | > 100 µM | > 100 µM
13 | CC(C)(C)OC(=O)NCCc1cccc2c1oc1c(CCC(=O)O)cccc12 | > 100 µM | > 100 µM |  |  |  | > 100 µM | > 100 µM | > 100 µM | > 100 µM |  | > 100 µM | > 100 µM | > 100 µM | > 100 µM | > 100 µM
14 | CCCCCCCCCCCCCCCCOCC(Cl)COP(=O)(O)OP(=O)(O)OCC1OC(n2cc(C)c(=O)[nH]c2=O)CC1O (centres undefined) | > 100 µM | > 100 µM | > 100 µM | > 100 µM | > 100 µM | > 100 µM | > 100 µM |  | > 100 µM |  | > 100 µM | > 100 µM | > 100 µM | > 100 µM | 71.8 µM
15 | Oc1ccc(N=C2CCC(=C(c3ccccc3)c3ccc(Nc4ccc(O)cc4)cc3)CC2)cc1 | > 100 µM | > 100 µM |  | > 100 µM | > 100 µM | > 100 µM | > 100 µM | > 100 µM | > 100 µM | > 100 µM | > 100 µM | > 100 µM |  | > 100 µM | 
16 | N#C/C(C(=O)Nc1ccc(Cl)cc1)=C(/N)N1CCCCC1 | > 100 µM | > 100 µM | > 100 µM | > 100 µM | > 100 µM | > 100 µM | > 100 µM | > 100 µM | > 100 µM | > 100 µM | > 100 µM | > 100 µM |  | > 100 µM | 72.3 µM
17 | CCc1c(Cc2[nH]c(Cc3[nH]c(C=O)c(C)c3CC)c(CC)c2CC)[nH]c(C=O)c1C | > 100 µM | > 100 µM | > 100 µM |  |  |  | > 1 µM | > 100 µM | > 100 µM |  |  | > 100 µM | > 100 µM | > 100 µM | > 100 µM
